Experimental data published in ChEMBL document CHEMBL4184158, “Azolylthioacetamides as a potent scaffold for the development of metallo-β-lactamase inhibitors” (Bioorg Med Chem Lett, 2017).
Activity calls are given as the source filed them. The calls are words filed in the database; no cut-off is given here.

Columns and labels:
[1] = tested on: Bacteria; assay: Inhibition of bacterial metallo-beta-lactamase L1 expressed in Escherichia coli […] cells at 500 uM using imipenem as substrate by UV spectrometry
[2] = tested on: Escherichia coli; assay: Antibacterial activity against Escherichia coli BL21(DE3) at 16 ug/ml after 20 hrs by broth microdilution assay; type: functional, organism-based
[3] = tested on: Bacteria; assay: Inhibition of bacterial NDM1 expressed in Escherichia coli BL21 (DE3) transformed cells assessed as potentiation of imipenem-induced antibacterial activity by measuring imipenem MIC after 20 hrs by broth microdilution assay (reference value: 16 ug/ml)
[4] = tested on: Bacteria; assay: Inhibition of bacterial NDM1 expressed in Escherichia coli DH5R transformed cells at 500 uM using imipenem as substrate by UV spectrometry
[5] = Inhibition of bacterial ImiS expressed in Escherichia coli BL21 (DE3) transformed cells using imipenem as substrate by UV spectrometry; parameters: species or system Bacteria
[6] = tested on: Bacteria; assay: Inhibition of bacterial ImiS expressed in Escherichia coli BL21 (DE3) transformed cells assessed as potentiation of imipenem-induced antibacterial activity by measuring imipenem MIC after 20 hrs by broth microdilution assay (reference value: 1 ug/ml)
[7] = Inhibition of bacterial NDM1 expressed in Escherichia coli DH5R transformed cells using imipenem as substrate by UV spectrometry; parameters: species or system Bacteria
[8] = tested on: Bacteria; assay: Inhibition of bacterial ImiS expressed in Escherichia coli BL21 (DE3) transformed cells at 500 uM using imipenem as substrate by UV spectrometry
[9] = tested on: Bacteria; assay: Uncompetitive inhibition of bacterial ImiS expressed in Escherichia coli BL21 (DE3) transformed cells using imipenem as substrate after 5 mins by Lineweaver-Burk plot method
[10] = tested on: Bacteria; assay: Competitive inhibition of bacterial ImiS expressed in Escherichia coli BL21 (DE3) transformed cells using imipenem as substrate after 5 mins by Lineweaver-Burk plot method
[11] = tested on: Bacteria; assay: Uncompetitive inhibition of bacterial NDM-1 expressed in Escherichia coli BL21 (DE3) transformed cells using imipenem as substrate after 5 mins by Lineweaver-Burk plot method
[12] = tested on: Bacteria; assay: Competitive inhibition of bacterial NDM-1 expressed in Escherichia coli BL21 (DE3) transformed cells using imipenem as substrate after 5 mins by Lineweaver-Burk plot method

SMILES	inhibition [1]	Activity [2]	MIC [3] [µg/mL]	inhibition [4]	IC50 [5] [µM]	MIC [6] [µg/mL]	IC50 [7] [µM]	inhibition [8]	Kiuc [9] [nM]	Kic [10] [nM]	Kiuc [11] [nM]	Kic [12] [nM]
Nn1c(Cc2cccs2)nnc1SCC(=O)Nc1nc2ccccc2o1	inactive	inactive	16	inactive	53	0.5	–	–	–	–	–	–
O=C(CSc1nnc(-c2ccccc2O)o1)Nc1nc2ccc([N+](=O)[O-])cc2[nH]1	inactive	inactive	8	–	–	1	1.3	inactive	–	–	–	–
O=C(CSc1nnc(-c2cccc([N+](=O)[O-])c2)s1)Nc1nc2ccccc2o1	inactive	inactive	16	inactive	133	0.5	–	–	–	–	–	–
O=C(CSc1nnc(-c2cccc([N+](=O)[O-])c2)[nH]1)Nc1nc2ccccc2o1	inactive	inactive	16	inactive	378	0.25	–	–	–	–	–	–
O=C(CSc1nnc(-c2cccc([N+](=O)[O-])c2)s1)Nc1nc2ccc([N+](=O)[O-])cc2[nH]1	inactive	inactive	8	–	–	1	5.1	inactive	–	–	–	–
Nc1ccccc1-c1nnc(SCC(=O)Nc2nc3ccccc3[nH]2)o1	inactive	inactive	16	inactive	1.7	0.25	–	–	–	–	–	–
O=C(CSc1nnc(-c2ccccc2O)s1)Nc1nc2ccccc2[nH]1	inactive	inactive	16	inactive	0.33	0.5	–	–	–	–	–	–
Nc1ccccc1-c1nnc(SCC(=O)Nc2nc3ccccc3[nH]2)n1N	inactive	inactive	16	inactive	0.015	0.25	–	–	11	22	–	–
Nc1ccccc1-c1nnc(SCC(=O)Nc2nc3ccc([N+](=O)[O-])cc3[nH]2)s1	inactive	inactive	8	–	–	2	2.5	inactive	–	–	–	–
Nc1ccccc1-c1nnc(SCC(=O)Nc2nc3ccc([N+](=O)[O-])cc3[nH]2)n1N	inactive	inactive	8	–	–	1	1.1	inactive	–	–	–	–
O=C(CSc1nnc(-c2cccc([N+](=O)[O-])c2)s1)Nc1nc2ccccc2[nH]1	inactive	inactive	16	inactive	1.8	0.5	–	–	–	–	–	–
O=C(CSc1nnc(CCc2nnc(SCC(=O)Nc3nc4ccccc4[nH]3)s2)s1)Nc1nc2ccccc2[nH]1	inactive	inactive	16	inactive	0.39	0.25	–	–	–	–	–	–
O=C(CSc1nnc(-c2ccccc2O)o1)Nc1nc2ccccc2[nH]1	inactive	inactive	16	inactive	0.63	0.5	–	–	–	–	–	–
Nc1ccccc1-c1nnc(SCC(=O)Nc2nc3ccccc3[nH]2)s1	inactive	inactive	32	inactive	1.2	0.5	–	–	–	–	–	–
O=C(CSc1nnc(-c2ccccc2O)[nH]1)Nc1nc2ccc([N+](=O)[O-])cc2[nH]1	inactive	inactive	8	–	–	1	5.9	inactive	–	–	–	–
Nc1ccccc1-c1nnc(SCC(=O)Nc2nc3ccc([N+](=O)[O-])cc3[nH]2)[nH]1	inactive	inactive	4	–	–	1	0.17	inactive	–	–	310	550
O=C(CSc1nnc(Cc2ccccc2)s1)Nc1nc2ccccc2[nH]1	inactive	inactive	16	inactive	18	0.5	–	–	–	–	–	–
O=C(CSc1nnc(Cc2ccccc2)o1)Nc1nc2ccccc2[nH]1	inactive	inactive	16	inactive	3	0.25	–	–	–	–	–	–
Nn1c(Cc2ccccc2)nnc1SCC(=O)Nc1nc2ccccc2[nH]1	inactive	inactive	16	inactive	0.27	0.5	–	–	–	–	–	–
O=C(CSc1nnc(Cc2ccccc2)o1)Nc1nc2ccc([N+](=O)[O-])cc2[nH]1	inactive	inactive	4	–	–	1	0.5	inactive	–	–	–	–
O=C(CSc1nnc(-c2ccccc2O)s1)Nc1nc2ccccc2o1	inactive	inactive	16	inactive	196	0.5	–	–	–	–	–	–
Nn1c(Cc2ccccc2)nnc1SCC(=O)Nc1nc2ccc([N+](=O)[O-])cc2[nH]1	inactive	inactive	4	–	–	1	0.73	inactive	–	–	–	–
O=C(CSc1nnc(-c2ccccc2O)s1)Nc1nc2ccc([N+](=O)[O-])cc2[nH]1	inactive	inactive	8	–	–	1	6.4	inactive	–	–	–	–
Nc1ccccc1-c1nnc(SCC(=O)Nc2nc3ccccc3[nH]2)[nH]1	inactive	inactive	16	inactive	0.94	0.5	–	–	–	–	–	–
Nn1c(Cc2ccccc2)nnc1SCC(=O)Nc1nc2ccccc2o1	inactive	inactive	16	inactive	29	0.5	–	–	–	–	–	–
O=C(CSc1nnc(Cc2ccccc2)s1)Nc1nc2ccccc2o1	inactive	inactive	16	inactive	259	0.5	–	–	–	–	–	–
Nn1c(Cc2cccs2)nnc1SCC(=O)Nc1nc2ccccc2[nH]1	inactive	inactive	16	inactive	0.077	0.25	–	–	80	110	–	–
O=C(CSc1nnc(Cc2ccccc2)o1)Nc1nc2ccccc2o1	inactive	inactive	32	inactive	384	0.5	–	–	–	–	–	–
